From patent US12187723B2 (BRISTOL-MYERS SQUIBB COMPANY, priority 2019, dated 2025)

Molecular target: T1, human TLR9 (Homo sapiens, UniProt Q9NR96)
T1 construct: host or cells: HEK-Blue cells
T1 sequence (Q9NR96 26-1032): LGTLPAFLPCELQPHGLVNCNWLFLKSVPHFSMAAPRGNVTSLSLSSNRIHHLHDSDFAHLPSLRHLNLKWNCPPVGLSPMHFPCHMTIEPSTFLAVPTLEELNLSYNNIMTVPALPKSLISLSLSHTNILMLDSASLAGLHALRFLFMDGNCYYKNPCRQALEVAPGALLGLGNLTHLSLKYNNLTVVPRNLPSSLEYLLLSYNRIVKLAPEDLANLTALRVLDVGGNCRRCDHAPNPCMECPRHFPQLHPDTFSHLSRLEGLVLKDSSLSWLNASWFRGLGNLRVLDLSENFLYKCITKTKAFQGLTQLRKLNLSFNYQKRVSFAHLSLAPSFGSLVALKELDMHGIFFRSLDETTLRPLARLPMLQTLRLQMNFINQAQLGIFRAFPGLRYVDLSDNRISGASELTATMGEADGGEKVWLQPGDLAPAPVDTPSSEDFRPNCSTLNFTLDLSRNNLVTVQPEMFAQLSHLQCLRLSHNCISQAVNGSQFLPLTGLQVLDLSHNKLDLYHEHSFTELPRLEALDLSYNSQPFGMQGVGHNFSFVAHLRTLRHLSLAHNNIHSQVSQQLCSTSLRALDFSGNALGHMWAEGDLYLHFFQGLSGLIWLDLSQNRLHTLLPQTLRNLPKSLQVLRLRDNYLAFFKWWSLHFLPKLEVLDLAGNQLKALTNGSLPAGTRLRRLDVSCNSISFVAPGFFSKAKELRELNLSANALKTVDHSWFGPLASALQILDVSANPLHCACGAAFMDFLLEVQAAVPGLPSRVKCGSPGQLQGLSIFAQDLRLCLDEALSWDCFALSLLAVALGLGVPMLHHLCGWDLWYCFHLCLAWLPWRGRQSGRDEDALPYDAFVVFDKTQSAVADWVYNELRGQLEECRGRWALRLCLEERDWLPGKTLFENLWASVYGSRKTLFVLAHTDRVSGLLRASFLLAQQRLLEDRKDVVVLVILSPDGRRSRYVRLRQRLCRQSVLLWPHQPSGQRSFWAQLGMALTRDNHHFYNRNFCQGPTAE
Assay: TLR9 inhibition reporter assay (HEK-Blue SEAP)
Format: cell-based
Conditions: HEK-Blue cells overexpressing human TLR9, ODN2006 5 nM, 22 hour incubation
Procedure, shortened: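 HEK-Blue cells overexpressing human TLR7, TLR8 or TLR9 carry a SEAP reporter driven by NF-κB/AP-1 sites. Compounds (0.05 nM–50 μM) were preincubated 30 min at room temperature, then cells were stimulated with gardiquimod 7.5 μM (TLR7), R848 15.9 μM (TLR8) or ODN2006 5 nM (TLR9) for 22 h at 37 °C.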

SMILES	IC50 [µM]
COc1cc(-c2cc3[nH]c(=O)n(C4CCC(N5CCC6(CC5)COC6)CC4)c3cc2C(C)C)cn2ncnc12 (centres unmarked) [Example 239, 1-(4-(2-oxa-7-azaspiro[3.5]nonan-7-yl)cyclohexyl)-6-isopropyl-5-(8-methoxy-[1,2,4]triazolo[1,5-a]pyridin-6-yl)-1,3-dihydro-2H-benzo[d]imidazol-2-one]	13
CCc1cc2c(cc1-c1cc(OC)c3ncnn3c1)[nH]c(=O)n2[C@@H]1CCCN(CCC(F)(F)F)C1 [Example 183, (R)-6-ethyl-5-(8-methoxy-[1,2,4]triazolo[1,5-a]pyridin-6-yl)-1-(1-(3,3,3-trifluoropropyl)piperidin-3-yl)-1,3-dihydro-2H-benzo[d]imidazol-2-one]	33.5
CCc1cc2c(cc1-c1cc(OC)c3ncnn3c1)[nH]c(=O)n2[C@H]1CC[C@@H](N(CC)CC)CC1 [Example 169, 1-((1s,4s)-4-(diethylamino)cyclohexyl)-6-ethyl-5-(8-methoxy-[1,2,4]triazolo[1,5-a]pyridin-6-yl)-1,3-dihydro-2H-benzo[d]imidazol-2-one]	18.3
COc1cc(-c2cc3[nH]c(=O)n(C4CCC(N5CCNC(=O)C5)CC4)c3cc2C(C)C)cn2ncnc12 (centres unmarked) [Example 243, 6-isopropyl-5-(8-methoxy-[1,2,4]triazolo[1,5-a]pyridin-6-yl)-1-(4-(3-oxopiperazin-1-yl)cyclohexyl)-1,3-dihydro-2H-benzo[d]imidazol-2-one]	> 50
COc1cc(-c2cc3[nH]c(=O)n(C4CCC(N5CC(OC)C5)CC4)c3cc2C(C)C)cn2ncnc12 (centres unmarked) [Example 237, 6-isopropyl-5-(8-methoxy-[1,2,4]triazolo[1,5-a]pyridin-6-yl)-1-(4-(3-methoxyazetidin-1-yl)cyclohexyl)-1,3-dihydro-2H-benzo[d]imidazol-2-one]	11.3
CCCN[C@H]1CC[C@@H](n2c(=O)[nH]c3cc(-c4cc(OC)c5ncnn5c4)c(C(C)C)cc32)CC1 [Example 195, 6-isopropyl-5-(8-methoxy-[1,2,4]triazolo[1,5-a]pyridin-6-yl)-1-((1 s,4s)-4-(propylamino)cyclohexyl)-1,3-dihydro-2H-benzo[d]imidazol-2-one]	13.9
COc1cc(-c2cc3[nH]c(=O)n(C4CCC(N5CCCC5)CC4)c3cc2C(C)C)cn2ncnc12 (centres unmarked) [Example 231, 6-isopropyl-5-(8-methoxy-[1,2,4]triazolo[1,5-a]pyridin-6-yl)-1-(4-(pyrrolidin-1-yl)cyclohexyl)-1,3-dihydro-2H-benzo[d]imidazol-2-one]	15.1
CCc1cc2c(cc1-c1cc(OC)c3ncnn3c1)[nH]c(=O)n2[C@@H]1CCCN(CC2CC2)C1 [Example 182, (R)-1-(1-(cyclopropylmethyl)piperidin-3-yl)-6-ethyl-5-(8-methoxy-[1,2,4]triazolo[1,5-a]pyridin-6-yl)-1,3-dihydro-2H-benzo[d]imidazol-2-one]	7.94
COc1cc(-c2cc3[nH]c(=O)n([C@H]4CC[C@H](NC(C)C)CC4)c3cc2C(C)C)cn2ncnc12 [Example 203, 6-isopropyl-1-((1r,4s)-4-(isopropylamino)cyclohexyl)-5-(8-methoxy-[1,2,4]triazolo[1,5-a]pyridin-6-yl)-1,3-dihydro-2H-benzo[d]imidazol-2-one]	30.9
CCc1cc2c(cc1-c1cc(OC)c3ncnn3c1)[nH]c(=O)n2[C@@H]1CCCN(C(=O)CN(C)C)C1 [Example 228, (R)-1-(1-(dimethylglycyl)piperidin-3-yl)-6-ethyl-5-(8-methoxy-[1,2,4]triazolo[1,5-a]pyridin-6-yl)-1,3-dihydro-2H-benzo[d]imidazol-2-one]	14.1
Cc1c(-c2cc3[nH]c(=O)n([C@H]4CC[C@@H](NC(C)C)CC4)c3cc2C(C)C)cn2ncnc2c1C [Example 186, 5-(7,8-dimethyl-[1,2,4]triazolo[1,5-a]pyridin-6-yl)-6-isopropyl-1-((1s,4s)-4-(isopropylamino)cyclohexyl)-1,3-dihydro-2H-benzo[d]imidazol-2-one]	5.99
COc1cc(-c2cc3[nH]c(=O)n(C4CCC(N5CC6(CCOCC6)C5)CC4)c3cc2C(C)C)cn2ncnc12 (single isomer, unassigned) [Example 235, 1-(4-(7-oxa-2-azaspiro[3.5]nonan-2-yl)cyclohexyl)-6-isopropyl-5-(8-methoxy-[1,2,4]triazolo[1,5-a]pyridin-6-yl)-1,3-dihydro-2H-benzo[d]imidazol-2-one]	11.2
CCc1cc2c(cc1-c1cc(OC)c3ncnn3c1)[nH]c(=O)n2[C@@H]1CCCN(C)C1 [Example 174, (R)-6-ethyl-5-(8-methoxy-[1,2,4]triazolo[1,5-a]pyridin-6-yl)-1-(1-methylpiperidin-3-yl)-1,3-dihydro-2H-benzo[d]imidazol-2-one]	7.34
CCC(CC)CN[C@H]1CC[C@@H](n2c(=O)[nH]c3cc(-c4cc(OC)c5ncnn5c4)c(C(C)C)cc32)CC1 [Example 194]	2.08
CCCN(CCC)[C@H]1CC[C@@H](n2c(=O)[nH]c3cc(-c4cn5ncnc5c(C)c4C)c(C(C)C)cc32)CC1 [Example 199, 5-(7,8-dimethyl-[1,2,4]triazolo[1,5-a]pyridin-6-yl)-1-((1s,4s)-4-(dipropylamino)cyclohexyl)-6-isopropyl-1,3-dihydro-2H-benzo[d]imidazol-2-one]	3.37
CCc1cc2c(cc1-c1cc(OC)c3ncnn3c1)[nH]c(=O)n2[C@@H]1CCCN(C2CCCOC2)C1 (stereo partly drawn) [Example 215, 6-ethyl-5-(8-methoxy-[1,2,4]triazolo[1,5-a]pyridin-6-yl)-1-((3R)-1-(tetrahydro-2H-pyran-3-yl)piperidin-3-yl)-1,3-dihydro-2H-benzo[d]imidazol-2-one]	21
CCc1cc2c(cc1-c1cc(OC)c3ncnn3c1)[nH]c(=O)n2[C@@H]1CCCN(CC2CCOCC2)C1 [Example 175, (R)-6-ethyl-5-(8-methoxy-[1,2,4]triazolo[1,5-a]pyridin-6-yl)-1-(1-((tetrahydro-2H-pyran-4-yl)methyl)piperidin-3-yl)-1,3-dihydro-2H-benzo[d]imidazol-2-one]	7.39
CCc1cc2c(cc1-c1cc(OC)c3ncnn3c1)[nH]c(=O)n2[C@@H]1CCCN(CC(CC)CC)C1 [Example 178, (R)-6-ethyl-1-(1-(2-ethylbutyl)piperidin-3-yl)-5-(8-methoxy-[1,2,4]triazolo[1,5-a]pyridin-6-yl)-1,3-dihydro-2H-benzo[d]imidazol-2-one]	7.47
Cc1c(-c2cc3[nH]c(=O)n([C@H]4CC[C@@H](NC5CCOCC5)CC4)c3cc2C(C)C)cn2ncnc2c1C [Example 187, 5-(7,8-dimethyl-[1,2,4]triazolo[1,5-a]pyridin-6-yl)-6-isopropyl-1-((1s,4s)-4-((tetrahydro-2H-pyran-4-yl)amino)cyclohexyl)-1,3-dihydro-2H-benzo[d]imidazol-2-one]	12.8
COc1cc(-c2cc3[nH]c(=O)n([C@H]4CCCN(CC(N)=O)C4)c3cc2C(C)C)cn2ncnc12 [Example 220, (S)-2-(3-(6-isopropyl-5-(8-methoxy-[1,2,4]triazolo[1,5-a]pyridin-6-yl)-2-oxo-2,3-dihydro-1H-benzo[d]imidazol-1-yl)piperidin-1-yl)acetamide]	> 50
COc1cc(-c2cc3[nH]c(=O)n(C4CCC(N5CC(OC)C5)CC4)c3cc2C(C)C)cn2ncnc12 (centres unmarked) [Example 238, 6-isopropyl-5-(8-methoxy-[1,2,4]triazolo[1,5-a]pyridin-6-yl)-1-(4-(3-methoxyazetidin-1-yl)cyclohexyl)-1,3-dihydro-2H-benzo[d]imidazol-2-one]	8.09
COc1cc(-c2cc3[nH]c(=O)n([C@H]4CC[C@@H](NC5CCOCC5)CC4)c3cc2C(C)C)cn2ncnc12 [Example 193, 6-isopropyl-5-(8-methoxy-[1,2,4]triazolo[1,5-a]pyridin-6-yl)-1-((1s,4s)-4-((tetrahydro-2H-pyran-4-yl)amino)cyclohexyl)-1,3-dihydro-2H-benzo[d]imidazol-2-one]	21.4
CCc1cc2c(cc1-c1cc(OC)c3ncnn3c1)[nH]c(=O)n2[C@H]1CC[C@@H](NC2COC2)CC1 [Example 170, 6-ethyl-5-(8-methoxy-[1,2,4]triazolo[1,5-a]pyridin-6-yl)-1-((1s,4s)-4-(oxetan-3-ylamino)cyclohexyl)-1,3-dihydro-2H-benzo[d]imidazol-2-one]	20
